Reference: patent publication EP0108147B1, “Use of a protoberberine alkaloid and composition containing same” (MAROKO, Peter R., priority 1982, dated 1983)

How the values were obtained:
Format in all cases: in vivo
[1] = test system: closed-chest barbiturate anesthetized dogs; assay: Endotoxic (LPS) shock in dogs
Experimental: Nineteen closed-chest barbiturate anesthetized with artificial respiration dogs were studied. All measurements were done by the technique described before LPS.
At this time, i.e., two hours and fifteen minutes after administration of LPS, 1000 ml of 5% of dextrose in water was administered to all dogs during the next forty-five minutes.
Urinary output during the second hour of shock (before berberine or placebo treatments) and the third hour of shock (when the dogs were treated with either berberine of placebo) were compared in each dog. This analysis is of crucial importance since it would indicate the restoration of effective organ perfusion which in the case of the kidneys results in urinary output.

Mongrel dogs = assay: Protocol HV: acute left ventricular failure by coronary microsphere embolization, closed chest; conditions: for overall result in the model of acute left ventricular failure / preload reduction: dog, in vivo
Experimental: - Experiments were carried out in 21 mongrel dogs of either sex with body weight between 19 and 39 kg. Anesthesia was induced with sodium pentobarbital, 25 mg/kg of body weight intravenously, and small supplementary doses were given as necessary to maintain a constant level of anesthesia. The dogs were placed in the left lateral position and ventilation was maintained through a cuffed endotracheal tube with a volume-controlled respirator (Harvard Apparatus Co., Millis, Massachusetts). Polyethylene cannuleae were placed into the jugular and femoral veins for intravenous infusions and drug adminstration. Electrocardiograms (lead aVF) were monitored continuously throughout the experiments.
A polyethylene cannula was introduced into the aorta through the left carotid artery to record arterial pressure. (Stantham P23 ID transducer, Stantham Instruments, Inc. Oxnard, California). A Millar microtip transducer catheter (Millar Instruments, Inc., Houston, Texas) was introduced into the left ventricular cavity through the femoral artery to measure left ventricular pressures. For adjustment of zero level, left ventricular pressure was also measured through the fluid-filled lumen in the Millar catheter (Statham P23 ID transducer). The maximal rate of rise of left ventricular pressure, LV dP/dt, was recorded by means of a differentiator. All these parameters were recorded continuously on a polygraph (Gould 2800, Gould Instruments, Cleveland, Ohio). Cardiac output was determined by the thermodilution technique, using a thermistor catheter in the pulmonary artery and calculated by a cardiac output computer (Elecath, Electro- catheter Corp., Rahway, New Jersey). The coefficient of variation for duplicate CO measurements was 5%. In addition to the parameters directly obtained, total peripheral vascular resistance was calculated from the ratio of […] and cardiac output. Stroke volume was calculated by dividing cardiac output by heart rate. Heparin (Invendex) (5000 IU) was administered to avoid clotting of the catheters.
To induce acute left vetricular failure, initially the left main coronary artery was catheterized with a Judkin coronary artery catheter (7F, ISCI Cardiology and Radiology Products, Billerica, Massachusetts) under fluoroscopic control. It was introduced through a femoral artery, and polystyrene microspheres (3M Company, St. Paul, Minnesota) with a diameter of 52. 5 ± 4.0 µm (mean±SD) were injected into the coronary artery. The microspheres were used in a concentration of 1 mg (i.e., 12,000) per ml saline. The first dose of microsphere solution was 0.5 mi/kg body weight, and all subsequent doses were 0.25 ml/kg body weight, administered every 5 minutes. Administration of microspheres was discontinued when LV/dP/dt had been reduced by 30% or more when measured 4 minutes after the last dose. All dogs received prophylactic antiarrhythmic treatment with intravenous lidocaine, 1.5 mg/kg body weight as a bolus 20 min after the end of embolization, followed by a continuous infusion of […].
Forty-five minutes were allowed to elapse to verify the stability of the preparation. If Lv dP/dt or left ventricular end diastolic pressure had changed by 20% or more between 30 and 45 minutes after embolization, the dogs were excluded from this study and not randomized. Forty-five minutes after the end of embolization, the dogs were assigned randomly to three groups: a) Berberine-treated group, 0.2 mg/kg/ min, dissolved in 60 ml of a solution of 5% dextrose in water administered in a constant infusion during 30 minutes; b) ouabain-treated group, 0.03 mg/kg was administered in 60 ml of a 5% solution of dextrose in water during 30 minutes; and c) Control group, administration of 60 ml of a 5% solution of dextrose in water during 30 min. […]

Sprague-Daley rats = assay: Rat model of acute coronary artery occlusion, mortality; conditions: for antiarrhythmic control after coronary artery occlusion: rat, in vivo
Excerpt: Another series of experiments were done using the rat model of acute coronary artery occlusion. In these experiments the effect of berberine was examined on mortality. Thus, Sprague-Daley rats (Charles River) weighing over 300 grams were anesthetized with ether, their chest opened in the 5th left intercostal space their heart everted and the left main coronary occluded with a surgical stitch. Thereafter the heart was repositioned and the thorax closed with a purse string suture, as described in more detail by us previously (Maclean, Fishbein, M. C. Braunwald, E. and Maroco, P. R., Long Term Presentation of Ischemic Myocardium After Experimental Coronary Artery Occlusion. J. Clin. Inv. 61, pages 541-551, 1978 and also in Maclean, D., Fishbein, M. D., Maroko, P. R. and Braunwald, Hyaluronidase-Induced Reductions In Myocardial Infarct Size. Science, 194, pages 199-200 (1976)). The mortality in rats weighing over […] was greater than in smaller rats.
After finishing the surgical procedure, the rats were randomized into controls (injection of 5% dextrose in water) and berberine treated (1 mg/Kg intravenously as a bolus).

COc1ccc2cc3[n+](cc2c1OC)CCc1cc2c(cc1-3)OCO2 [berberine]
systemic systolic arterial pressure ([1]; after 1000 ml of 5% dextrose in water, controls 107±5, before shock 136±10): 127±6 mmHg | dP/dt higher than before shock ([1]; after dextrose): approximately 50% | peak left ventricular dP/dt ([1]; after dextrose, before shock 2565±166): 3740 ± 305 mmHg/s | cardiac arrhythmias or conduction defect ([1]; dog, in vivo): No cardiac arrhythmias or conduction defect was observed | increase of urinary output from the second (pre-treatment) to the third (treatment) hour ([1]; first statement, control -51.7±32.9): 30.5 ± 32.9 mL/h | increase of urinary output from the second (pre-treatment) to the third (treatment) hour ([1]; second statement): 30.5±14.3 mi | minimal dose that results in an elevation of systemic systolic arterial pressure by at least 5 mmHg ([1]; two hours after LPS 5 mg): 0.053 ± 0.008 mg/kg/min | peak left ventricular dP/dt ([1]; within fifteen minutes of treatment, control 1050±145): 2062±204 mmHg/s | pulse pressure (systolic minus diastolic pressures) ([1]; within fifteen minutes of treatment, from 24±2): 32±2 mmHg | systolic pressure ([1]; within fifteen minutes of treatment, placebo 50±6): 66±4 mmHg | time to increase of LVdP/dt and reduction of left ventricular end diastolic pressure (Mongrel dogs; 0.2 mg/kg/min infusion): ≤ 2.5 min | Diastolic and mean arterial pressure (Mongrel dogs; 0.2 mg/kg/min, 30 min): significantly although only slightly reduced | Systolic arterial pressure (Mongrel dogs; 0.2 mg/kg/min, 30 min): not significantly changed | decrease of total peripheral vascular resistance (Mongrel dogs; 0.2 mg/kg/min, 30 min): 19 ± 2% | fall of heart rate (Mongrel dogs; 0.2 mg/kg/min, 30 min): 8 beats/min | increase of LVdP/dt (Mongrel dogs; 0.2 mg/kg/min, end of the 30-minute infusion): 28 ± 8% | cardiac output (Mongrel dogs; after infusion, from 1.76 ± 0.15): 1.93 ± 0.16 L/min | Stroke volume (Mongrel dogs; after infusion, from 14.6 ± 1.9): 17.3 ± 2.7 mL | pulse pressure (Mongrel dogs; after infusion, from 28 ± 2): 33 ± 4 mmHg | Total peripheral vascular resistance (Mongrel dogs; after infusion, from 4915 ± 559): 4004 ± 496 10^-5N·S·cm^-5 | decrease of left venticular end diastolic pressure (Mongrel dogs; end of the 30-minute infusion): 38 ± 4% | Left venticular end diastolic pressure (Mongrel dogs; end of the 30-minute infusion, from 13.3 ± 0.8): 8.1 ± 0.5 mmHg | LVdP/dt (Mongrel dogs; end of the 30-minute infusion, from 1572 ±80): 2010 ± 95 mmHg/s | rats that died within the first fifteen minutes (Sprague-Daley rats; 1 mg/Kg intravenously as a bolus, controls seventeen out of twenty-four): six out of twenty- two

COc1ccc2cc3[n+](cc2c1O)CCc1cc2c(cc1-3)OCO2 [berberrubine]
control of endotoxic shock caused by LPS ([1]; dog, in vivo): comparable results | overall result in the model of acute left ventricular failure (Mongrel dogs): perform in an equivalent manner | preload reduction (Mongrel dogs): comparable preload reduction | antiarrhythmic control after coronary artery occlusion (Sprague-Daley rats): like antiarrhythmic control is observable

COc1cc2c(cc1O)C[C@H]1c3cc(O)c(OC)cc3CCN1C2 [coreximine]
control of endotoxic shock caused by LPS ([1]; dog, in vivo): comparable results | overall result in the model of acute left ventricular failure (Mongrel dogs): perform in an equivalent manner | preload reduction (Mongrel dogs): comparable preload reduction | antiarrhythmic control after coronary artery occlusion (Sprague-Daley rats): like antiarrhythmic control is observable
